Measurements: patent US8604217B2, “Compound, a process for its preparation, a pharmaceutical composition, use of a compound, a method for modulating or regulating serine/threonine kinases and a serine/threonine kinases modulating agent” (Selvita S.A., priority 2009, dated 2013)
pIC50: −log10 of the molar value.

Assays:
[1] = molecular target: PIM-1 (Homo sapiens (Human), UniProt P11309); test: Luminometric kinase assay for PIM1 kinase (Kinase-Glo); assay type: biochemical; conditions: 1 μM ATP, 25 min at RT
Chain of PIM-1 (P11309 whole entry): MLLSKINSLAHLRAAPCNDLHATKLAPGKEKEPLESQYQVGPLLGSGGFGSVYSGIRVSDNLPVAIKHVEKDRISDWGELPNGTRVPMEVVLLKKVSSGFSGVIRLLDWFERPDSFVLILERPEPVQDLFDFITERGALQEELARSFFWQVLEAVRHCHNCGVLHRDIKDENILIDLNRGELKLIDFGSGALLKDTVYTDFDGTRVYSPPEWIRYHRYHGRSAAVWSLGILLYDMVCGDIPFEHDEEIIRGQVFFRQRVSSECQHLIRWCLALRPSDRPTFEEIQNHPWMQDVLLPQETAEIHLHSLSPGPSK
Protocol: Kinase assay was performed using luminescent Kinase-Glo® (Promega) system. The Kinase-Glo® Luminescent Kinase Assay Platform provides a homogeneous, high-throughput screening method for measuring kinase activity by quantifying the amount of ATP remaining in solution following a kinase reaction. The luminescent signal is correlated with the amount of ATP present and is inversely correlated with the kinase activity. Appropriate amounts of both kinase and substrate were mixed in 96-well, white wall plate in the reaction buffer (8 mM MOPS/NaOH, pH7.0, 0.2 mM EDTA, 2 mM MgCl2). Tested compounds were diluted in DMSO and serial dilutions starting with 1 μM were added to the palates. Reaction was initiated by adding 1 μM of ATP solution and conducted for 25 min. at RT. Luminescent signal was detected by adding Kinase-Glo® reagent and measured using a microplate spectrophotometer (Synergy 2 multi-mode microplate reader (BioTek)). IC50 values were obtained by fitting sigmoidal dose-response curve (variable slope) using GraphPad Prism software.

[2] = system: human myelomonocytic, biphenotypic leukemia MV4-11 cells; test: Growth inhibition test (MTS) on MV4-11 cells; assay type: cell-based; conditions: Homo sapiens, MV4-11, 72 hours, read-out: MV-4-11 ED50
Protocol: (§1) Ten thousand cells of human myelomonocytic, biphenotypic leukemia MV4-11 were inoculated into each well of a 96-well microplate (manufactured by Corning Corp.) using Iscove's MDM medium (culture medium) containing 10% fetal calf serum (FCS). Next day, a dimethyl sulfoxide (DMSO) solution of each test compound prepared in a concentration of 10 mmol/L was further diluted with culture medium to the desired concentrations (0.1, 0.5, 1, 2.5, 5 and 10 micromol/L), and the diluted solution was added to each well. The individual wells were further cultured in 5% carbon dioxide at 37° C. for 72 hours. After completion of the culture, 10 μl MTS (3-(4,5-Dimethyl-2-thiazolyl)-5-(carboxymethoxyphenyl)-2-(4-sulfophenyl)-2H-tetrazolium, inner salt assay (CellTiter96® AQueous One Solution Cell Proliferation Assay, Promega) was added to each well, and culturing was performed in 5% carbon dioxide at 37° C. for 2 hours. Using a microplate spectrophotometer (Synergy 2 multi-mode microplate reader (BioTek)), the absorbance of each well was measured at 490 nm. The value for cells not incorporated with a test compound was designated as 100%. By comparing these values with the absorbance difference obtained at the well in which each test compound was added, the cell viability (% viability) after treatment with the test compound was calculated.

[3] = system: human acute lymphocytic leukemia E6.1 Jurkat cells; test: Growth inhibition test (MTS) on E6.1 Jurkat cells; assay type: cell-based; conditions: 72 hours, read-out: Jurkat ED50
Protocol: as §1, with “Twenty” for “Ten”, “acute lumphocytic” for “myelomonocytic, biphenotypic”, “E6.1 Jurkat” for “MV4-11”, “[…]” for “Iscove's MDM”

[4] = system: human breast adenocarcinoma MCF7 cells; test: Growth inhibition test (MTS) on MCF7 cells; assay type: cell-based; conditions: Homo sapiens, MCF7, 72 hours, read-out: MCF-7 ED50
Protocol: as §1, with “Two” for “Ten”, “breast adenocarcinoma MCF7” for “myelomonocytic, biphenotypic leukemia MV4-11”, “Corp.), and” for “Corp.)”, “DMEM” for “Iscove's MDM”

[5] = system: human prostate adenocarcinoma PC3 cells; test: Growth inhibition test (MTS) on PC3 cells; assay type: cell-based; conditions: Homo sapiens, PC-3, 72 hours, read-out: PC-3 ED50
Source text: as §1, with “Two” for “Ten”, “prostate adenocarcinoma PC3” for “myelomonocytic, biphenotypic leukemia MV4-11”, “Corp.), and” for “Corp.)”, “F12K (Ham's F12:[…] 1:1)” for “Iscove's MDM”

[6] = system: human hepatoma HepG2 cells; test: Growth inhibition test (MTS) on HepG2 cells; assay type: cell-based; conditions: 72 hours, read-out: HepG2 ED50
Protocol: as §1, with “Two” for “Ten”, “hepatoma HepG2” for “myelomonocytic, biphenotypic leukemia MV4-11”, “DMEM” for “Iscove's MDM”

Row | SMILES | pIC50 [1] | pIC50 [2] | pIC50 [3] | pIC50 [4] | pIC50 [5] | pIC50 [6]
1 | Brc1c(Br)c(Br)c2[nH]c(NCCN3CCN(c4ncccn4)CC3)nc2c1Br [Compound 247, 4,5,6,7-tetrabromo-N-(2-(4-(pyrimidin-2-yl)piperazin-1-yl)ethyl)-1H-benzo[d]imidazol-2-amine] | 6.96 | 5.22 | 5.11 | 5.15 | – | 5.05
2 | CN1CCCN(c2nc3c(Br)c(Br)c(Br)c(Br)c3[nH]2)CC1 [Compound 256, 4,5,6,7-tetrabromo-2-(4-methyl-1,4-diazepan-1-yl)-1H-benzo[d]imidazole] | – | 5.59 | 5.31 | 5.29 | 5.29 | 5.47
3 | Brc1c(Br)c(Br)c2[nH]c(N3CCCNCC3)nc2c1Br [Compound 260, 4,5,6,7-tetrabromo-2-(1,4-diazepan-1-yl)-1H-benzo[d]imidazole] | 7.52 | 5.84 | 5.27 | 5.25 | 5.25 | 5.15
4 | CN(C)CC(CNc1nc2c(Br)c(Br)c(Br)c(Br)c2[nH]1)C(O)c1ccccc1 (stereo not shown) [Compound 272, 2-((4,5,6,7-tetrabromo-1H-benzo[d]imidazol-2-ylamino)methyl)-3-(dimethylamino)-1-phenylpropan-1-ol] | 7.36 | 5.62 | 5.56 | 5.35 | 5.31 | 5.65
5 | N[C@@H]1CCCC[C@H]1Nc1nc2c(Br)c(Br)c(Br)c(Br)c2[nH]1 [Compound 304RR, (1R,2R)-N1-(4,5,6,7-tetrabromo-1H-benzo[d]imidazol-2-yl)cyclohexane-1,2-diamine] | 8.28 | 6.60 | 5.50 | 5.63 | 5.50 | 5.58

The remaining lines, values ahead:

Row | pIC50 [1] | pIC50 [2] | pIC50 [3] | pIC50 [4] | pIC50 [5] | pIC50 [6] | SMILES
6 | 7.20 | 5.31 | 5.07 | 5.08 | 5.05 | 5.45 | CN(C)CCN(Cc1ccccc1)c1nc2c(Br)c(Br)c(Br)c(Br)c2[nH]1 [Compound 158, N-benzyl-4,5,6,7-tetrabromo-N-(2-(dimethylamino)ethyl)-1H-benzo[d]imidazol-2-amine]
7 | 7.29 | 5.92 | 5.31 | 5.31 | 5.50 | 5.58 | CN(C)CCN1CCC(CNc2nc3c(Br)c(Br)c(Br)c(Br)c3[nH]2)C1 (stereo not shown) [Compound 166, 4,5,6,7-tetrabromo-N-((1-(2-(dimethylamino)ethyl)pyrrolidin-3-yl)methyl)-1H-benzo[d]imidazol-2-amine]
8 | – | 5.80 | 5.36 | 5.38 | 5.60 | 5.66 | Brc1cccc(Nc2nc3c(Br)c(Br)c(Br)c(Br)c3[nH]2)c1 [Compound 236, 4,5,6,7-tetrabromo-N-(3-bromophenyl)-1H-benzo[d]imidazol-2-amine]
9 | – | 5.19 | 5.15 | 5.23 | 5.45 | 5.26 | Brc1c(Br)c(Br)c2[nH]c(Nc3ccc4ccccc4c3)nc2c1Br [Compound 259, 4,5,6,7-tetrabromo-N-(naphthalen-3-yl)-1H-benzo[d]imidazol-2-amine]
10 | 6.86 | 5.47 | 5.34 | 5.31 | 5.49 | 5.37 | Brc1c(Br)c(Br)c2[nH]c(NC3CCCCCCC3)nc2c1Br [Compound 261, 4,5,6,7-tetrabromo-N-cyclooctyl-1H-benzo[d]imidazol-2-amine]
11 | 7.32 | 5.62 | 5.59 | 5.56 | 5.58 | 5.58 | CN1CCC(N(C)CC(Nc2nc3c(Br)c(Br)c(Br)c(Br)c3[nH]2)c2ccccc2)CC1 (stereo not shown) [Compound 263, N-(4,5,6,7-tetrabromo-1H-benzo[d]imidazol-2-yl)-N′-methyl-N′-(1-methylpiperidin-4-yl)-1-phenylethane-1,2-diamine]
12 | 7.17 | 5.65 | 5.44 | 5.51 | 5.34 | 5.74 | CCN1CCCC1CNc1nc2c(Br)c(Br)c(Br)c(Br)c2[nH]1 (stereo not shown) [Compound 265a, 4,5,6,7-tetrabromo-N-((1-ethylpyrrolidin-2-yl)methyl)-1H-benzo[d]imidazol-2-amine]
13 | 6.22 | 5.40 | 5.15 | 5.18 | – | 5.36 | Nc1cc(Br)c(Br)cc1Nc1nc2c(Br)c(Br)c(Br)c(Br)c2[nH]1 [Compound 317, 4,5-dibromo-N1-(4,5,6,7-tetrabromo-1H-benzo[d]imidazol-2-yl)benzene-1,2-diamine]
